Test results from patent publication US20090131354A1, “miR-126 REGULATED GENES AND PATHWAYS AS TARGETS FOR THERAPEUTIC INTERVENTION” (priority 2007, published 2009).

Tests used:
[1] = tested on: established H460 lung tumors; experiment: Established H460 lung tumors, intratumoral injections; format: in vivo, NOD/SCID mice; conditions: H460, 6.25 μg intratumoral with siPORT amine on days 11, 14, 17
Source text: Delivery of hsa-miR-126 into human lung cancer cells prior to implantation into the animal inhibited the formation of lung tumor xenografts. […] To explore this possibility, each 3×10^6 human H460 non-small lung cancer cells were mixed with BD Matrigel™, (BD Biosciences; San Jose, Calif., USA; cat. no. 356237) in a 1:1 ratio and subcutaneously injected into the lower back of 23 NOD/SCID mice (Charles River Laboratories, Inc.; Wilmington, Mass., USA). Once animals developed palpable tumors (day 11 post xenograft implantation), a group of six animals received intratumoral injections of each 6.25 μg hsa-miR-126 (Dharmacon, Inc., Lafayette, Colo., USA) formulated with the lipid-based siPORT™ amine delivery agent (Ambion, Austin, Tex.; cat. no. AM4502) on days 11, 14 and 17. A control group of six animals received intratumoral injections of each 6.25 μg negative control miRNA (NC; Dharmacon, Lafayette, Colo.), following the same injection schedule that was used for hsa-miR-126. Given an average mouse weight of 20 g, this dose equals 0.3125 mg/kg. […] Caliper measurements were taken every 1-2 days, and tumor volumes were calculated using the formula, Volume=length×width×width/2, in which the length is greater than the width.

A549 lung cancer cells = experiment: Dose-dependent inhibition of proliferation (Alamar Blue), A549; format: cell-based, human; conditions: for % proliferation: normalized to mock-transfected cells (0 pM = 100%)
Procedure: Lipid-based reverse transfections were carried out in triplicate according to a published protocol (Ovcharenko et al., 2005) and the following parameters: Cells (5,000-12,000 per 96 well), 0.1-0.2 μl Lipofectamine™ 2000 (cat. no. 11668-019, Invitrogen Corp., Carlsbad, Calif., USA) in 20 μl OptiMEM (Invitrogen), 30 nM final concentration of miRNA in 100 μl. Electroporation of H226 cells was carried out using the BioRad Gene Pulser Xcell™ instrument (BioRad Laboratories Inc., Hercules, Calif., USA) with the following settings: 5×10^6 cells with 5 μg miRNA in 200 μl OptiMEM (1.6 μM miRNA), square wave pulse at 250 V for 5 ms. Electroporated H226 cells were seeded at 7,000 cells per 96-well in a total volume of 100 μl. All cells except for Calu-3 cells were harvested 72 hours post transfection or electroporation for assessment of cellular proliferation. Calu-3 cells were harvested 10 days post transfection. Proliferation assays were performed using Alamar Blue (Invitrogen) following the manufacturer's instructions. As a control for inhibition of cellular proliferation, siRNA against the motor protein kinesin 11, also known as Eg5, was used. Eg5 is essential for cellular survival of most eukaryotic cells and a lack thereof leads to reduced cell proliferation and cell death (Weil et al., 2002). siEg5 was used in lipid-based transfection following the same experimental parameters that apply to miRNA. The inventors also used a DNA topoisomerase II inhibitor, etoposide, at a final concentration of 10 μM and 50 μM as an internal standard for the potency of miRNAs. Etoposide is an FDA-approved DNA topoisomerase II inhibitor in the treatment of lung cancer. […] Percent (%) proliferation values from the Alamar Blue assay were normalized to values from cells treated with negative control miRNA. Percent proliferation of hsa-miR-126 treated cells relative to cells treated with negative control miRNA (100%) is shown in Table 6 and in FIG. 1.
The inventors determined sensitivity and specificity of hsa-miR-126 by administering hsa-miR-126 or negative control miRNA at increasing concentrations, ranging from 0 pM to 3,000 pM (Table 7, FIG. 2). Delivery of miRNA and assessment of cellular proliferation of A549 and H460 cells were done as described above. Proliferation values from the Alamar Blue assay were normalized to values obtained from mock-transfected cells (0 pM=100% proliferation). Increasing amounts of negative control miRNA (NC) had no effect on cellular proliferation of A549 or H460 cells (Table 7 and FIG. 2). In contrast, the growth-inhibitory phenotype of hsa-miR-126 is dose-dependent and correlates with increasing amounts of hsa-miR-126 (Table 7 and FIG. 2). Hsa-miR-126 induces a specific therapeutic response at concentrations as low as 300 pM.

Substance: hsa-miR-126 (UCGUACCGUGAGUAAUAAUGC; synthetic pre-miR form, further chemistry not given here) [Synthetic hsa-miR-126 (Pre-miR™-hsa-miR-126, Ambion cat. no. AM17100)]
- growth of established tumors [1]: robustly inhibited growth of established H460 lung tumors
- growth-inhibitory phenotype, dose dependence (A549 lung cancer cells; A549 and H460, 0 pM to 3,000 pM): dose-dependent
- concentration inducing a specific therapeutic response (A549 lung cancer cells; A549 and H460, 0 pM to 3,000 pM tested): ≥ 300 pM
- % proliferation (A549 lung cancer cells; A549 cells, 3 pM miRNA): 95.40%
- % proliferation (A549 lung cancer cells; A549 cells, 30 pM miRNA): 92.87%
- % proliferation (A549 lung cancer cells; A549 cells, 300 pM miRNA): 80.93%
- % proliferation (A549 lung cancer cells; A549 cells, 3,000 pM miRNA): 74.50%
